From US8389231B2, “Assays, method and compositions that exploit a mycobacterial iron acquistion pathway in cells” (The Trustees of Princeton University, priority 2005, dated 2013)

What was measured:
[1] = test system: macrophages (THP-1 cell line); assay: MJ-mediated iron acquisition: conversion of MJ to Fe-MJ in macrophage culture, HPLC analysis; format: cell-based, human; conditions: for effect on basal recovery of Fe-MJ: 10 μM metal transferrin added to macrophages with MJ; for stimulation of MJ-mediated iron acquisition from macrophages (conversion of MJ to Fe-MJ): 10 μM transferrin species added to macrophages with MJ, 37° C.
Procedure: Cell cultures. The THP-1 cell line (a macrophage-like monocyte) was purchased from American Type Culture Collection (ATCC) and used for all protocols. The cells were cultured into PRMI1640 (ATCC) supplemented with 10% fetal bovine serum (ATCC), 2 mM L-glutamine and 0.02 mM penicillin-streptomycin, and maintained at a cell concentration between 2×10^5 and 1×10^6 cells/ml at 37° C. in a 5% CO2 air atmosphere by addition of fresh growth medium (as described above) twice per week. Either PRMI1640 or phenol-red-free PRMI1640 was used with the supply of 2 mM L-glutamine and 0.02 mM penicillin-streptomycin, but in the absence of 10% FBS, for the experiments with MJ.
HPLC analysis for Fe-MJ and MJ. Varian ProStar & PrepStar HPLC and a Waters Delta Pak 5μ C18-300 Åcolumn were used with 3:7 H2O:CH3CN as eluting solution under all conditions. The intensities of the peak with retention time 43 min at 460 nm were integrated and normalized to the amount of Fe-MJ. Macrophages (final concentration, 1×10^5 cells/ml) or 0.05 mM DMPC vesicles as controls were preincubated in RPMI 1640 medium at 37° C. for 4 h, followed by the addition of MJ (final concentration, 1.5 μM). The media were incubated for 24 h at various conditions, such as in the presence or absence of hTf, at varied temperatures or in the presence of different concentrations of desferrioxamine mesylate salt. Three aliquots (3×4 ml) of the medium were collected and lysed by dunces. Lipophilic components were extracted into 3.5 ml CHCl3 and the mixture was centrifuged at 2500 r.p.m for 8 min. The organic layer extraction 2.5 ml was subject to a stream of argon to vaporize CHCl3. The dried mixture was dissolved into 400 μl CH3CN, of which 200 μl solutions was injected into HPLC. The peak intensity of 100% conversion to Fe-MJ was obtained by incubating 1.5 μM Fe-MJ into the medium, following the same workup above.

[2] = test system: macrophage cells; assay: Cell-aqueous-phase distributions of MJ and Fe-MJ; format: in vitro ADME, human
Procedure: Cell-aqueous-phase distributions of MJ and Fe-MJ. After the conversion from MJ to Fe-MJ, aqueous-phase Fe-MJ was obtained by separating the supernatant medium from macrophage cells via the centrifugation with 1500 r.p.m for 5 min. The aliquot of recovered supernatant was subject to CHCl3 extract and HPLC analysis as described above. For measurements of the cell/aqueous-phase partition coefficient of Fe-MJ, Fe-MJ 1.0 μM was incubated into RPMI 1640 medium at 37° C. for half an hour in the presence of various concentrations of macrophage cells. Then the supernatant was separated and analyzed as described above. For the partition coefficient of MJ, prior to the HPLC analysis, a 10-fold ferric citrate excess was added into a MJ-CH3CN solution, followed by a two-hr incubation for the complete conversion from MJ to Fe-MJ. Aqueous-phase and total MJ and Fe-MJ, Ctotal and Cw, respectively, were used to calculate Cv/Cw according to the relationship: Cv/Cw=(Ctotal−Cw)/Cw. The partition coefficient, K was defined according to the following equation: Cv/Cw=K×[Cell], in which [Cell] is the concentration of macrophage cells (cells/ml) and Cv is the amount of lipid-phase MJ or Fe-MJ.

[3] = Lipid-aqueous-phase partition coefficient using lipid vesicles as model membrane; format: physicochemical

Substance: Al(III) transferrin: Al(III) transferrin complex prepared from apo transferrin, Al(NO3)3 and nitrilotriacetic acid
- effect on basal recovery of Fe-MJ [1]: greatly suppressed
- stimulation of MJ-mediated iron acquisition from macrophages (conversion of MJ to Fe-MJ) [1]: failed to stimulate

Substance: Ga(III) transferrin: Ga(III) transferrin complex prepared from apo transferrin
- effect on basal recovery of Fe-MJ [1]: greatly suppressed
- stimulation of MJ-mediated iron acquisition from macrophages (conversion of MJ to Fe-MJ) [1]: failed to stimulate

Substance: hTf: fully saturated holo-transferrin (human transferrin), obtained from Sigma
- hTf-triggered conversion at low temperatures ([1]; 10 μM hTf, low temperatures (4° C. level similar to absence of hTf)): significantly suppressed
- stimulation of MJ-mediated iron acquisition from macrophages (conversion of MJ to Fe-MJ) [1]: nearly doubled

Substance: Co-Tf: Cobalt(III) transferrin
- stimulation of MJ-mediated iron acquisition from macrophages (conversion of MJ to Fe-MJ) [1]: more effective agonist than hTf

Substance: ferric mycobactin J [Fe-MJ]
- Fe-MJ from the aqueous phase as share of total recovered Fe-MJ ([2]; after 24-hr incubation of MJ in macrophage culture (1×10^5 cells/ml), presence or absence of hTf): 80%
- cell-aqueous-phase partition coefficient K (Cv/Cw=K×[Cell]) ([2]; macrophage cells, RPMI 1640, 37° C.): 9.8×10^−7 ml/cell
- lipid-aqueous-phase partition coefficient Kx [3]: 3×10^5
